Assays:
[1] = test system: Hum51 (DNA, G4) GGGTTAGGGTTAGGGTTAGGGTTAGGGTTAGGGTTAGGGTTAGGGTTAGGG; test: UV-vis absorption titration, Scatchard; details: 150 mM KCl; 10 mM Tris-HCl pH 7.4, 1 mM Na2EDTA, 400 ml/l PEG 200; 3 μM compound; n = 0.50
[2] = test system: Hum21 (DNA, G4) GGGTTAGGGTTAGGGTTAGGG; test: UV-vis absorption titration, Scatchard; details: 150 mM KCl; 10 mM Tris-HCl pH 7.4, 1 mM Na2EDTA, 400 ml/l PEG 200; 3 μM compound; Ka undetected
[3] = test system: Hum51-M2 (DNA, G4) GGGTTAGGGTTAGGGTTAGGGTTGAGTGTAGGGTTAGGGTTAGGGTTAGGG; test: UV-vis absorption titration, Scatchard; details: 150 mM KCl; 10 mM Tris-HCl pH 7.4, 1 mM Na2EDTA, 400 ml/l PEG 200; 3 μM compound; n = 0.46
[4] = test system: GC (DNA, duplex) GCGCGCGCGCGC; test: UV-vis absorption; details: 150 mM KCl; 10 mM Tris-HCl pH 7.4, 1 mM Na2EDTA, 400 ml/l PEG 200; 20 μM DNA
[5] = test system: KRAS (DNA, G4) AGGGCGGTGGGAAGAGGGAAGAGGGGGAGG; test: UV-vis absorption; details: 150 mM KCl; 10 mM Tris-HCl pH 7.4, 1 mM Na2EDTA, 400 ml/l PEG 200; DNA up to 10:1 over compound
[6] = test system: Hum57-M3 (DNA, G4) GGGTTAGGGTTAGGGTTAGGGTTGAGTGTGAGTGTAGGGTTAGGGTTAGGGTTAGGG; test: UV-vis absorption titration, Scatchard; details: 150 mM KCl; 10 mM Tris-HCl pH 7.4, 1 mM Na2EDTA, 400 ml/l PEG 200; 3 μM compound; n = 0.50
[7] = test system: Hum21 (DNA, G4) GGGTTAGGGTTAGGGTTAGGG; test: UV melting at 295 nm; details: 50 mM KCl; 10 mM Tris-HCl pH 7.4, 1 mM Na2EDTA, no PEG; 5 μM compound, 5 μM DNA; derived from two Tm
[8] = test system: ssDNA1 (DNA, single strand) GAGCTCTCGAAAGAGCTCCGATTA; test: UV-vis absorption; details: 150 mM KCl; 10 mM Tris-HCl pH 7.4, 1 mM Na2EDTA, 400 ml/l PEG 200; 20 μM DNA
[9] = test system: Hum51-M1 (DNA, G4) GGGTTAGGGTTAGGGTTAGGGTTAGGGTTAGGGTTAGGGTTAGGGTGTGAG; test: UV-vis absorption titration, Scatchard; details: 150 mM KCl; 10 mM Tris-HCl pH 7.4, 1 mM Na2EDTA, 400 ml/l PEG 200; 3 μM compound; n = 0.45
[10] = test system: LD (DNA, duplex) GCGCAATTGCGC; test: UV-vis absorption; details: 150 mM KCl; 10 mM Tris-HCl pH 7.4, 1 mM Na2EDTA, 400 ml/l PEG 200; 20 μM DNA
[11] = test system: AT (DNA, duplex) ATATATATATAT; test: UV-vis absorption; details: 150 mM KCl; 10 mM Tris-HCl pH 7.4, 1 mM Na2EDTA, 400 ml/l PEG 200; 20 μM DNA
[12] = test system: Hum45 (DNA, G4) GGGTTAGGGTTAGGGTTAGGGTTAGGGTTAGGGTTAGGGTTAGGG; test: UV melting at 295 nm; details: 50 mM KCl; 10 mM Tris-HCl pH 7.4, 1 mM Na2EDTA, no PEG; 5 μM compound, 5 μM DNA; derived from two Tm
[13] = test system: C-MYC (DNA, G4) TGAGGGTGGGAGGGTGGGAA; test: UV-vis absorption; details: 150 mM KCl; 10 mM Tris-HCl pH 7.4, 1 mM Na2EDTA, 400 ml/l PEG 200; DNA up to 10:1 over compound
[14] = test system: Hum63 (DNA, G4) GGGTTAGGGTTAGGGTTAGGGTTAGGGTTAGGGTTAGGGTTAGGGTTAGGGTTAGGGTTAGGG; test: UV melting at 295 nm; details: 50 mM KCl; 10 mM Tris-HCl pH 7.4, 1 mM Na2EDTA, no PEG; 5 μM compound, 5 μM DNA; derived from two Tm
[15] = test system: Oxy28 (DNA, G4) GGGGTTTTGGGGTTTTGGGGTTTGGGG; test: UV-vis absorption; details: 150 mM KCl; 10 mM Tris-HCl pH 7.4, 1 mM Na2EDTA, 400 ml/l PEG 200; DNA up to 10:1 over compound
[16] = test system: Hum51 (DNA, G4) GGGTTAGGGTTAGGGTTAGGGTTAGGGTTAGGGTTAGGGTTAGGGTTAGGG; test: UV melting at 295 nm; details: 50 mM KCl; 10 mM Tris-HCl pH 7.4, 1 mM Na2EDTA, no PEG; 5 μM compound, 5 μM DNA; derived from two Tm
[17] = test system: Hum57 (DNA, G4) GGGTTAGGGTTAGGGTTAGGGTTAGGGTTAGGGTTAGGGTTAGGGTTAGGGTTAGGG; test: UV-vis absorption titration, Scatchard; details: 150 mM KCl; 10 mM Tris-HCl pH 7.4, 1 mM Na2EDTA, 400 ml/l PEG 200; 3 μM compound; n = 0.48
[18] = test system: Hum69 (DNA, G4) GGGTTAGGGTTAGGGTTAGGGTTAGGGTTAGGGTTAGGGTTAGGGTTAGGGTTAGGGTTAGGGTTAGGG; test: UV melting at 295 nm; details: 50 mM KCl; 10 mM Tris-HCl pH 7.4, 1 mM Na2EDTA, no PEG; 5 μM compound, 5 μM DNA; derived from two Tm
[19] = test system: ssDNA2 (DNA, single strand) TAGAGCACACCTGTCCGTG; test: UV-vis absorption; details: 150 mM KCl; 10 mM Tris-HCl pH 7.4, 1 mM Na2EDTA, 400 ml/l PEG 200; 20 μM DNA
[20] = test system: Hum57-M1 (DNA, G4) GGGTTAGGGTTAGGGTTAGGGTTAGGGTTAGGGTTAGGGTTAGGGTGTGAGTGTGAG; test: UV-vis absorption titration, Scatchard; details: 150 mM KCl; 10 mM Tris-HCl pH 7.4, 1 mM Na2EDTA, 400 ml/l PEG 200; 3 μM compound; n = 0.48
[21] = test system: Hum57-M2 (DNA, G4) GGGTTAGGGTTAGGGTTAGGGTTGAGTGTAGGGTTAGGGTTAGGGTTAGGGTGTGAG; test: UV-vis absorption titration, Scatchard; details: 150 mM KCl; 10 mM Tris-HCl pH 7.4, 1 mM Na2EDTA, 400 ml/l PEG 200; 3 μM compound; n = 0.47
[22] = test system: Hum45 (DNA, G4) GGGTTAGGGTTAGGGTTAGGGTTAGGGTTAGGGTTAGGGTTAGGG; test: UV-vis absorption titration, Scatchard; details: 150 mM KCl; 10 mM Tris-HCl pH 7.4, 1 mM Na2EDTA, 400 ml/l PEG 200; 3 μM compound; n = 0.46
[23] = test system: M3Q (DNA, G4) GAGGGAGGGAGGGAGAGGGA; test: UV-vis absorption; details: 150 mM KCl; 10 mM Tris-HCl pH 7.4, 1 mM Na2EDTA, 400 ml/l PEG 200; DNA up to 10:1 over compound
[24] = test system: Hum63 (DNA, G4) GGGTTAGGGTTAGGGTTAGGGTTAGGGTTAGGGTTAGGGTTAGGGTTAGGGTTAGGGTTAGGG; test: UV-vis absorption titration, Scatchard; details: 150 mM KCl; 10 mM Tris-HCl pH 7.4, 1 mM Na2EDTA, 400 ml/l PEG 200; 3 μM compound; n = 0.52
[25] = test system: Hum69 (DNA, G4) GGGTTAGGGTTAGGGTTAGGGTTAGGGTTAGGGTTAGGGTTAGGGTTAGGGTTAGGGTTAGGGTTAGGG; test: UV-vis absorption titration, Scatchard; details: 150 mM KCl; 10 mM Tris-HCl pH 7.4, 1 mM Na2EDTA, 400 ml/l PEG 200; 3 μM compound; n = 0.52
[26] = test system: Hum57 (DNA, G4) GGGTTAGGGTTAGGGTTAGGGTTAGGGTTAGGGTTAGGGTTAGGGTTAGGGTTAGGG; test: UV melting at 295 nm; details: 50 mM KCl; 10 mM Tris-HCl pH 7.4, 1 mM Na2EDTA, no PEG; 5 μM compound, 5 μM DNA; derived from two Tm
[27] = test system: Hum63-M1 (DNA, G4) GGGTTAGGGTTAGGGTTAGGGTTAGGGTTAGGGTTAGGGTTAGGGTGTGAGTGTGAGTGTGAG; test: UV-vis absorption titration, Scatchard; details: 150 mM KCl; 10 mM Tris-HCl pH 7.4, 1 mM Na2EDTA, 400 ml/l PEG 200; 3 μM compound; n = 0.46
[28] = test system: Hum63-M3 (DNA, G4) GGGTTAGGGTTAGGGTTAGGGTTGAGTGTGAGTGTAGGGTTAGGGTTAGGGTTAGGGTGTGAG; test: UV-vis absorption titration, Scatchard; details: 150 mM KCl; 10 mM Tris-HCl pH 7.4, 1 mM Na2EDTA, 400 ml/l PEG 200; 3 μM compound; n = 0.50
[29] = test system: Hum63-M2 (DNA, G4) GGGTTAGGGTTAGGGTTAGGGTTGAGTGTAGGGTTAGGGTTAGGGTTAGGGTGTGAGTGTGAG; test: UV-vis absorption titration, Scatchard; details: 150 mM KCl; 10 mM Tris-HCl pH 7.4, 1 mM Na2EDTA, 400 ml/l PEG 200; 3 μM compound; n = 0.50

In the case of `C[N+]1(CCOc2cccc(-c3c4nc(c(-c5cccc(OCC[N+]6(C)CCCCC6)c5)c5ccc([nH]5)c(-c5cccc(OCC[N+]6(C)CCCCC6)c5)c5nc(c(-c6cccc(OCC[N+]7(C)CCCCC7)c6)c6ccc3[nH]6)C=C5)C=C4)c2)CCCCC1`, the Ka [1] is reported as 1.66e+06 M⁻¹, the binding [2] is reported as “no” and the Ka [3] is reported as 1.1e+06 M⁻¹. The binding [4] was “no”, the binding [5] was “no” and the Ka [6] was 1.08e+06 M⁻¹. The “melting temperature shift (ΔTm)” value [7] was 0.4 °C, the binding [8] was “no” and the Ka [9] was 1.09e+06 M⁻¹. For the same compound, the binding [10] was “no”, the binding [11] was “no” and the “melting temperature shift (ΔTm)” value [12] was 9.1 °C. For the same compound, the binding [13] was “no”, the “melting temperature shift (ΔTm)” value [14] was 8.9 °C and the binding [15] was “no”. The “melting temperature shift (ΔT1/2)” value [16] was 8.0 °C, the Ka [17] was 1.05e+06 M⁻¹ and the “melting temperature shift (ΔTm)” value [18] was 6.6 °C. For the same compound, the binding [19] was “no”, the Ka [20] was 1.3e+06 M⁻¹ and the Ka [21] was 1.38e+06 M⁻¹. For the same compound, the Ka [22] was 1.11e+06 M⁻¹, the binding [23] was “no” and the Ka [24] was 2.53e+06 M⁻¹. For the same compound, the Ka [25] was 2.05e+06 M⁻¹, the “melting temperature shift (ΔTm)” value [26] was 9.2 °C and the Ka [27] was 2.08e+06 M⁻¹. It also gave a Ka [28] of 1.08e+06 M⁻¹ and a Ka [29] of 1.1e+06 M⁻¹.

From article PMC4117758 (2014)
